Experimental data: ChEMBL document CHEMBL1155852, “Novel inhibitors of anthrax edema factor” (Bioorg Med Chem, 2008)
The source made the active and inactive calls. No cut-off for these calls is given here.

Key:
[1] = biological target: T1, Calmodulin-sensitive adenylate cyclase (Bacillus anthracis) (UniProt P40136); test: Inhibition of Bacillus anthracis edema factor-induced cAMP secretion in mouse RAW264.7 cells at 100 uM after 4 hrs by ELISA; type: cell-based
T1 sequence (whole entry): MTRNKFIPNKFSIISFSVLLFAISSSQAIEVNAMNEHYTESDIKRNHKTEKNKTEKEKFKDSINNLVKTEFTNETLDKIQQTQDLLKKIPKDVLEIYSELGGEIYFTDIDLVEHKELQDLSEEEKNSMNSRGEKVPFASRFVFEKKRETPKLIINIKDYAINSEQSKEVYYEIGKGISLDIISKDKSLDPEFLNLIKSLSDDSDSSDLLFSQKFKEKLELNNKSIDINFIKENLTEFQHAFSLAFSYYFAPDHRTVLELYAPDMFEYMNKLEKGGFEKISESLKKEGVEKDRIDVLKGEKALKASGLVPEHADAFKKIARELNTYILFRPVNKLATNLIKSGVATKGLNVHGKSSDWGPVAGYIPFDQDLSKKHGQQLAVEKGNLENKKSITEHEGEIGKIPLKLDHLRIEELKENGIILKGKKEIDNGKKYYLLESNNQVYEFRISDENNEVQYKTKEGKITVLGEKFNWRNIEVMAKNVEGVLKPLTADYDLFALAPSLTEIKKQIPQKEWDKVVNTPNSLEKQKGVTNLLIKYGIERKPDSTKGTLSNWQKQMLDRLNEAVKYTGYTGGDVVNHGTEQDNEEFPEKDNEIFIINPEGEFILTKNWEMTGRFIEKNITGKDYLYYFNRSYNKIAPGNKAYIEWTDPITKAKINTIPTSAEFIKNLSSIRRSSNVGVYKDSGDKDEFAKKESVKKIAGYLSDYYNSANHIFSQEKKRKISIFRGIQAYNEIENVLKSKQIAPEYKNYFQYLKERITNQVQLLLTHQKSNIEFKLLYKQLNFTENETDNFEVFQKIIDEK

[2] = biological target: T2, Calmodulin-sensitive adenylate cyclase (Bacillus anthracis, UniProt P40136); test: Inhibition of Bacillus anthracis edema factor-induced cAMP secretion in mouse RAW264.7 cells after 4 hrs by ELISA; type: cell-based
T2 sequence (P40136 whole entry): T1 sequence (whole entry)

| SMILES | Activity [1] | IC50 [2] [nM] |
| --- | --- | --- |
| CCCCC[C@H](O)/C=C/[C@H]1[C@H](n2ccnc2)CC(=O)[C@@H]1C/C=C\CCCC(=O)O | Active | – |
| O=C(O)c1ccc(/N=C/c2c3ccccc3cc3ccccc23)cc1O | – | 8500 |
| O=C(O)c1cccc(NC(=O)c2cccc3c2C(=O)c2ccccc2-3)c1 | – | 1830 |
| COc1cccc([C@H]2Nc3ccc(C(=O)O)cc3[C@@H]3C=CC[C@H]23)c1 | – | 1730 |
